What follows are compounds tested on MCF7 cells (assay: Anti-proliferation (viability) of MCF7 cells (Table 7, FIG. 2B)). Conditions: Homo sapiens, MCF7, MCF7 cells, 3-6 days, 10-point serial dilution; read-out: GI IC50 in MCF-7.
Format: cell-based

Row | IC50 | Structure (SMILES)
1 | > 0.1 µM | CC(=O)c1c(C)c2cnc(Nc3ccc(N4CCN(CC(=O)NCCCCCNc5nc6[nH]ccc6cc5C(=O)Nc5ccc(N(C)C)nn5)CC4)cn3)nc2n(C2CCCC2)c1=O [CPD-251, 6-((5-(2-(4-(6-((6-acetyl-8-cyclopentyl-5-methyl-7-oxo-7,8-dihydropyrido[2,3-d]pyrimidin-2-yl)amino)pyridin-3-yl)piperazin-1-yl)acetamido)pentyl)amino)-N-(6-(dimethylamino)pyridazin-3-yl)-1H-pyrrolo[2,3-b]pyridine-5-carboxamide]
2 | > 0.1 µM | CC(=O)c1c(C)c2cnc(Nc3ccc(N4CCN(CC(=O)NC5CC6(C5)CC(Nc5cc(F)ccc5C(=O)Nc5cc(C)on5)C6)CC4)cn3)nc2n(C2CCCC2)c1=O (stereo not drawn) [CPD-260, 2-((6-(2-(4-(6-((6-acetyl-8-cyclopentyl-5-methyl-7-oxo-7,8-dihydropyrido[2,3-d]pyrimidin-2-yl)amino)pyridin-3-yl)piperazin-1-yl)acetamido)spiro[3.3]heptan-2-yl)amino)-4-fluoro-N-(5-methylisoxazol-3-yl)benzamide]
3 | > 0.1 µM | CC(=O)c1c(C)c2cnc(Nc3ccc(N4CCN(CC(=O)NCC5CC(Nc6ccc(C(F)(F)F)cc6C(=O)Nc6cc(C)n(C)n6)C5)CC4)cn3)nc2n(C2CCCC2)c1=O (stereo not drawn) [CPD-262, 2-((3-((2-(4-(6-((6-acetyl-8-cyclopentyl-5-methyl-7-oxo-7,8-dihydropyrido[2,3-d]pyrimidin-2-yl)amino)pyridin-3-yl)piperazin-1-yl)acetamido)methyl)cyclobutyl)amino)-N-(1,5-dimethyl-1H-pyrazol-3-yl)-5-(trifluoromethyl)benzamide]
4 | > 0.1 µM | CC(=O)c1c(C)c2cnc(Nc3ccc(N4CCN(CC(=O)NCC5CC(Nc6cc(F)ccc6C(=O)Nc6cc(C)n(C)n6)C5)CC4)cn3)nc2n(C2CCCC2)c1=O (stereo not drawn) [CPD-264, 2-((3-((2-(4-(6-((6-acetyl-8-cyclopentyl-5-methyl-7-oxo-7,8-dihydropyrido[2,3-d]pyrimidin-2-yl)amino)pyridin-3-yl)piperazin-1-yl)acetamido)methyl)cyclobutyl)amino)-N-(1,5-dimethyl-1H-pyrazol-3-yl)-4-fluorobenzamide]
5 | > 0.1 µM | CC(=O)c1c(C)c2cnc(Nc3ccc(N4CCN(CC(=O)NC5CC6(C5)CC(Nc5nc(N(C)C)ccc5C(=O)Nc5cn(C)c(C7CC7)n5)C6)CC4)cn3)nc2n(C2CCCC2)c1=O (stereo not drawn) [CPD-291, 2-((6-(2-(4-(6-((6-acetyl-8-cyclopentyl-5-methyl-7-oxo-7,8-dihydropyrido[2,3-d]pyrimidin-2-yl)amino)pyridin-3-yl)piperazin-1-yl)acetamido)spiro[3.3]heptan-2-yl)amino)-N-(2-cyclopropyl-1-methyl-1H-imidazol-4-yl)-6-(dimethylamino)nicotinamide]

Further lines, the compound ahead of its results:

Row | Structure (SMILES) | IC50
6 | CC(=O)c1c(C)c2cnc(Nc3ccc(N4CCN(CC(=O)NCC5CC(Nc6cc(C(F)(F)F)ccc6C(=O)Nc6cc(C)n(C)n6)C5)CC4)cn3)nc2n(C2CCCC2)c1=O (stereo not drawn) [CPD-261, 2-((3-((2-(4-(6-((6-acetyl-8-cyclopentyl-5-methyl-7-oxo-7,8-dihydropyrido[2,3-d]pyrimidin-2-yl)amino)pyridin-3-yl)piperazin-1-yl)acetamido)methyl)cyclobutyl)amino)-N-(1,5-dimethyl-1H-pyrazol-3-yl)-4-(trifluoromethyl)benzamide] | > 0.1 µM
7 | CC(=O)c1c(C)c2cnc(Nc3ccc(N4CCN(CC(=O)NCC5CC(Nc6ccc(F)cc6C(=O)Nc6cc(C)n(C)n6)C5)CC4)cn3)nc2n(C2CCCC2)c1=O (stereo not drawn) [CPD-263, 2-((3-((2-(4-(6-((6-acetyl-8-cyclopentyl-5-methyl-7-oxo-7,8-dihydropyrido[2,3-d]pyrimidin-2-yl)amino)pyridin-3-yl)piperazin-1-yl)acetamido)methyl)cyclobutyl)amino)-N-(1,5-dimethyl-1H-pyrazol-3-yl)-5-fluorobenzamide] | > 0.1 µM
8 | CNc1ccc(C(=O)Nc2ccc(N(C)C)nn2)c(NC2CC3(C2)CN(C(=O)CCN2CCN(c4ccc(Nc5ncc6c(C)c(C(C)=O)c(=O)n(C7CCCC7)c6n5)nc4)CC2(C)C)C3)n1 [CPD-267, 2-((2-(3-(4-(6-((6-acetyl-8-cyclopentyl-5-methyl-7-oxo-7,8-dihydropyrido[2,3-d]pyrimidin-2-yl)amino)pyridin-3-yl)-2,2-dimethylpiperazin-1-yl)propanoyl)-2-azaspiro[3.3]heptan-6-yl)amino)-N-(6-(dimethylamino)pyridazin-3-yl)-6-(methylamino)nicotinamide] | < 0.05 µM
9 | CNc1ccc(C(=O)Nc2ccc(N(C)C)nn2)c(NC2CC3(C2)CN(C(=O)CN2CCN(Cc4ccc(Nc5ncc6c(C)c(C(C)=O)c(=O)n(C7CCCC7)c6n5)nc4)CC2)C3)n1 [CPD-268, 2-((2-(2-(4-((6-((6-acetyl-8-cyclopentyl-5-methyl-7-oxo-7,8-dihydropyrido[2,3-d]pyrimidin-2-yl)amino)pyridin-3-yl)methyl)piperazin-1-yl)acetyl)-2-azaspiro[3.3]heptan-6-yl)amino)-N-(6-(dimethylamino)pyridazin-3-yl)-6-(methylamino)nicotinamide] | < 0.05 µM
10 | CNc1ccc(C(=O)Nc2ccc(N(C)C)nn2)c(NC2CN(C(=O)CN3CCN(Cc4ccc(Nc5ncc6c(C)c(C(C)=O)c(=O)n(C7CCCC7)c6n5)nc4)CC3)C2)n1 [CPD-269, 2-((1-(2-(4-((6-((6-acetyl-8-cyclopentyl-5-methyl-7-oxo-7,8-dihydropyrido[2,3-d]pyrimidin-2-yl)amino)pyridin-3-yl)methyl)piperazin-1-yl)acetyl)azetidin-3-yl)amino)-N-(6-(dimethylamino)pyridazin-3-yl)-6-(methylamino)nicotinamide] | > 0.1 µM
11 | CC(=O)c1c(C)c2cnc(Nc3ccc(N4CCN(CC(=O)N5CCC(Nc6nc(NC(C)C)ccc6C(=O)Nc6cc(C)on6)CC5)CC4)cn3)nc2n(C2CCCC2)c1=O [CPD-290, 2-((1-(2-(4-(6-((6-acetyl-8-cyclopentyl-5-methyl-7-oxo-7,8-dihydropyrido[2,3-d]pyrimidin-2-yl)amino)pyridin-3-yl)piperazin-1-yl)acetyl)piperidin-4-yl)amino)-6-(isopropylamino)-N-(5-methylisoxazol-3-yl)nicotinamide] | > 0.1 µM

These compounds were tested against CDK4 (Homo sapiens, UniProt P11802+Q16531) (assay: CDK4 percentage degradation in Calu-1 cells (Table 6)). Conditions: 40 nM, 16 hours.
Format: cell-based
Set-up: Cells that express cyclin D1-3 and CDK4/6 proteins were treated with heterobifunctional compounds; endogenous in cells; host or cells: Calu-1
Procedure, shortened: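 Calu-1 cells exposed to heterobifunctional compounds at 40 nM or 200 nM for 16 h. Cyclin D1 and CDK4 levels measured by Western blot of RIPA lysates (BCA-normalised loading), bands quantified by densitometry and expressed as percentage degradation.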

Chain of CDK4 (P11802 2-303 limits assumed): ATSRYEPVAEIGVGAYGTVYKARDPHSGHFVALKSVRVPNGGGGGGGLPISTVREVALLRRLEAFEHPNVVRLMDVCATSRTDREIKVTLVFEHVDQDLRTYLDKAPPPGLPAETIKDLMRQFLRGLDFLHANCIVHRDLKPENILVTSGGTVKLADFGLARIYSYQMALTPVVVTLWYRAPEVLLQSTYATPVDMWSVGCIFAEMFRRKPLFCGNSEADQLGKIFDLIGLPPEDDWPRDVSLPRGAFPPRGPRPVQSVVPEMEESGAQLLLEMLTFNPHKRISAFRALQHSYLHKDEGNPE
Chain of CDK4 (P24385 whole entry partner): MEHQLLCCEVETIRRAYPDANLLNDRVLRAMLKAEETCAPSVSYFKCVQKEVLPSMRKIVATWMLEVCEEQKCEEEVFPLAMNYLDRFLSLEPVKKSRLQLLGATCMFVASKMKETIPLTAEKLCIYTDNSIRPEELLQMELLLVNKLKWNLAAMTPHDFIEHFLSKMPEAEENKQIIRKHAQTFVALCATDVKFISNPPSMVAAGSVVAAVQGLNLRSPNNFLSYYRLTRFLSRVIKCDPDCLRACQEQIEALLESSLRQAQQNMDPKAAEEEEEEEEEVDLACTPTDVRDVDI
Chain of CDK4 (Q16531 2-1140 limits assumed): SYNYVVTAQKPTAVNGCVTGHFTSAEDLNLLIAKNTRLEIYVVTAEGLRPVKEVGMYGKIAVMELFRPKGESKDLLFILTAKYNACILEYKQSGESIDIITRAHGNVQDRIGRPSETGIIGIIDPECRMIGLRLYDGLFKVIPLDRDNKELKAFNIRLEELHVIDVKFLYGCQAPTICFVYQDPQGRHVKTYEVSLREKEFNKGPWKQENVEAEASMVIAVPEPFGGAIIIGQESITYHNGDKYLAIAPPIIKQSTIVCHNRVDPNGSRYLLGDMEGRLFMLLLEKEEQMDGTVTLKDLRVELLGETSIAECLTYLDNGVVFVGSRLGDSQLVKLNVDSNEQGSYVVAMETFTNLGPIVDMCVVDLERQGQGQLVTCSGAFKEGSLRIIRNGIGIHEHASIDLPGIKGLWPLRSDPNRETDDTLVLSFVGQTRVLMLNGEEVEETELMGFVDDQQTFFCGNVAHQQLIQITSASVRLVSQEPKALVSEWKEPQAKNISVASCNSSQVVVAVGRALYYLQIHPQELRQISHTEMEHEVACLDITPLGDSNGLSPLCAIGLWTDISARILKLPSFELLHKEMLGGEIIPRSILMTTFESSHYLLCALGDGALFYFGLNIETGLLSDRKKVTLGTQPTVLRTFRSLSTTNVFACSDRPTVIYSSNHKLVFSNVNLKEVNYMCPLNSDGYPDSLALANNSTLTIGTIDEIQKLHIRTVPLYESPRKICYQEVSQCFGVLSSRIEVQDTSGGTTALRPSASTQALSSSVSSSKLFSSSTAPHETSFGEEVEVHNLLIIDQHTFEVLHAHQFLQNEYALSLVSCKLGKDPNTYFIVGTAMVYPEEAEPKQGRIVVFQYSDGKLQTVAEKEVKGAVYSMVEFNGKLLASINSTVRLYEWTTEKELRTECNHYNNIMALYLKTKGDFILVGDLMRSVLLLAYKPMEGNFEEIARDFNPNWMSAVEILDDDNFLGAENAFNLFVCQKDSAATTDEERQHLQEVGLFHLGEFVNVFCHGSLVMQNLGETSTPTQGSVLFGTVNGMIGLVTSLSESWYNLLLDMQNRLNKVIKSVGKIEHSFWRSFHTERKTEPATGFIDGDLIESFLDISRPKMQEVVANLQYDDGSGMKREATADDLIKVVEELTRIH

Row | Structure (SMILES) | inhibition at 0.04 µM
12 | CC(=O)c1c(C)c2cnc(Nc3ccc(N4CCN(CC(=O)NCCC5CC(Nc6cc(F)ccc6C(=O)Nc6ccc(N(C)C)nn6)C5)CC4)cn3)nc2n(C2CCCC2)c1=O (stereo not drawn) [CPD-258, 2-((3-(2-(2-(4-(6-((6-Acetyl-8-cyclopentyl-5-methyl-7-oxo-7,8-dihydropyrido[2,3-d]pyrimidin-2-yl)amino)pyridin-3-yl)piperazin-1-yl)acetamido)ethyl)cyclobutyl)amino)-N-(6-(dimethylamino)pyridazin-3-yl)-4-fluorobenzamide] | 30 to 50%
13 | CC(=O)c1c(C)c2cnc(Nc3ccc(N4CCN(CC(=O)NC5CC6(C5)CC(Nc5cc(Cl)ccc5C(=O)Nc5cc(C)on5)C6)CC4)cn3)nc2n(C2CCCC2)c1=O (stereo not drawn) [CPD-259, 2-((6-(2-(4-(6-((6-acetyl-8-cyclopentyl-5-methyl-7-oxo-7,8-dihydropyrido[2,3-d]pyrimidin-2-yl)amino)pyridin-3-yl)piperazin-1-yl)acetamido)spiro[3.3]heptan-2-yl)amino)-4-chloro-N-(5-methylisoxazol-3-yl)benzamide] | < 30%

Same assay, conditions: 200 nM, 16 hours

Row | Structure (SMILES) | inhibition at 0.2 µM
14 | CC(=O)c1c(C)c2cnc(Nc3ccc(N4CCN(CC(=O)NCCC5CC(Nc6cc(F)ccc6C(=O)Nc6ccc(N(C)C)nn6)C5)CC4)cn3)nc2n(C2CCCC2)c1=O (stereo not drawn) [CPD-258, 2-((3-(2-(2-(4-(6-((6-Acetyl-8-cyclopentyl-5-methyl-7-oxo-7,8-dihydropyrido[2,3-d]pyrimidin-2-yl)amino)pyridin-3-yl)piperazin-1-yl)acetamido)ethyl)cyclobutyl)amino)-N-(6-(dimethylamino)pyridazin-3-yl)-4-fluorobenzamide] | 50 to 80%
15 | CC(=O)c1c(C)c2cnc(Nc3ccc(N4CCN(CC(=O)NC5CC6(C5)CC(Nc5cc(Cl)ccc5C(=O)Nc5cc(C)on5)C6)CC4)cn3)nc2n(C2CCCC2)c1=O (stereo not drawn) [CPD-259, 2-((6-(2-(4-(6-((6-acetyl-8-cyclopentyl-5-methyl-7-oxo-7,8-dihydropyrido[2,3-d]pyrimidin-2-yl)amino)pyridin-3-yl)piperazin-1-yl)acetamido)spiro[3.3]heptan-2-yl)amino)-4-chloro-N-(5-methylisoxazol-3-yl)benzamide] | 30 to 50%

— US20260297081A1, “COMPOUNDS AND METHODS OF TREATING CANCERS” (Cullgen Inc., priority 2023, published 2026)
